Converted amounts (≈) assume the structure as drawn.
Experiments:
[1] = tested on: Stenotrophomonas maltophilia; experiment: Antimicrobial activity against Stenotrophomonas maltophilia K279a mutant; assay type: functional
[2] = tested on: Stenotrophomonas maltophilia; experiment: Antimicrobial activity against Stenotrophomonas maltophilia K279a (aph FS) mutant; assay type: functional
Escherichia coli [3] = experiment: Antimicrobial activity against recombinant Escherichia coli DH5alpha expressing pBAD; assay type: functional
Escherichia coli [4] = experiment: Antimicrobial activity against recombinant Escherichia coli DH5-alpha expressing pBAD [aph(3')-2] in the presence of arabinose; assay type: functional; conditions: DH5alpha
Escherichia coli [5] = experiment: Antimicrobial activity against recombinant Escherichia coli DHalpha expressing pBAD [aph(3')-2]; assay type: functional; conditions: DH5alpha
Escherichia coli [6] = experiment: Antimicrobial activity against recombinant Escherichia coli DH5-alpha expressing pBAD in the presence of arabinose; assay type: functional; conditions: DH5alpha
Escherichia coli [7] = conditions: DH5alpha
Escherichia coli [8] = conditions: DH5alpha; remark: listed apart in the source
Escherichia coli [9] = conditions: DH5alpha; remark: listed apart in the source
Escherichia coli [10] = conditions: DH5alpha; remark: listed apart in the source

| Molecule | MIC [1] | MIC [2] | MIC (Escherichia coli [3]) | MIC (Escherichia coli [4]) | MIC (Escherichia coli [5]) | MIC (Escherichia coli [6]) | MIC (Escherichia coli [7]) | MIC (Escherichia coli [8]) | MIC (Escherichia coli [9]) | MIC (Escherichia coli [10]) |
| --- | --- | --- | --- | --- | --- | --- | --- | --- | --- | --- |
| NC[C@H]1O[C@H](O[C@H]2[C@H](O)[C@@H](O[C@H]3O[C@H](CO)[C@@H](O)[C@H](N)[C@H]3O)[C@H](N)C[C@@H]2N)[C@H](N)C[C@@H]1O [TOBRAMYCIN] | 32 µg/mL (≈ 68.4 µM) | 32 µg/mL (≈ 68.4 µM) | 0.5 µg/mL | 8 µg/mL | 0.5 µg/mL | 0.5 µg/mL | – | – | – | – |
| NC[C@H]1O[C@H](O[C@H]2[C@H](O)[C@@H](O[C@H]3O[C@H](CO)[C@@H](O)[C@H](N)[C@H]3O)[C@H](N)C[C@@H]2N)[C@H](O)[C@@H](O)[C@@H]1O [KANAMYCIN] | 256 µg/mL (≈ 528 µM) | 8 µg/mL (≈ 16.5 µM) | – | – | – | – | – | – | – | – |
| NC[C@@H]1O[C@H](O[C@H]2[C@@H](O)[C@H](O[C@@H]3[C@@H](O)[C@H](N)C[C@H](N)[C@H]3O[C@H]3O[C@H](CO)[C@@H](O)[C@H](O)[C@H]3N)O[C@@H]2CO)[C@H](N)[C@@H](O)[C@@H]1O [PAROMOMYCIN] | 256 µg/mL (≈ 416 µM) | 64 µg/mL (≈ 104 µM) | 0.25 µg/mL | 128 µg/mL | 0.25 µg/mL | 0.25 µg/mL | – | – | – | – |
| GENTAMICIN | 16 µg/mL | 16 µg/mL | – | – | – | – | 1 µg/mL | 1 µg/mL | 1 µg/mL | 1 µg/mL |
| NC[C@@H]1O[C@H](O[C@H]2[C@@H](O)[C@H](O[C@@H]3[C@@H](O)[C@H](N)C[C@H](N)[C@H]3O[C@H]3O[C@H](CN)[C@@H](O)[C@H](O)[C@H]3N)O[C@@H]2CO)[C@H](N)[C@@H](O)[C@@H]1O [FRAMYCETIN] | 512 µg/mL (≈ 833 µM) | 64 µg/mL (≈ 104 µM) | 0.5 µg/mL | 64 µg/mL | 0.5 µg/mL | 0.5 µg/mL | – | – | – | – |
| NCC[C@H](O)C(=O)N[C@@H]1C[C@H](N)[C@@H](O[C@H]2O[C@H](CN)[C@@H](O)[C@H](O)[C@H]2O)[C@H](O)[C@H]1O[C@H]1O[C@H](CO)[C@@H](O)[C@H](N)[C@H]1O [AMIKACIN] | 64 µg/mL (≈ 109 µM) | 64 µg/mL (≈ 109 µM) | 0.5 µg/mL | 4 µg/mL | 0.5 µg/mL | 0.5 µg/mL | – | – | – | – |
| CN[C@@H]1[C@@H](O)[C@@H](O[C@@H]2[C@@H](O)[C@H](O[C@H]3OC(CN)=CC[C@H]3N)[C@@H](N)C[C@H]2N)OC[C@]1(C)O [SISOMICIN] | 8 µg/mL (≈ 17.9 µM) | 8 µg/mL (≈ 17.9 µM) | 0.125 µg/mL | 0.125 µg/mL | 0.125 µg/mL | 0.125 µg/mL | – | – | – | – |
| butirosin | 8 µg/mL | 1 µg/mL | – | – | – | – | 0.125 µg/mL | 0.125 µg/mL | 4 µg/mL | 0.125 µg/mL |
| NC[C@@H]1O[C@H](O[C@H]2[C@@H](O)[C@H](O[C@@H]3[C@@H](O)[C@H](N)C[C@H](N)[C@H]3O[C@H]3O[C@H](CO)[C@@H](O)C[C@H]3N)O[C@@H]2CO)[C@H](N)[C@@H](O)[C@@H]1O[C@H]1O[C@H](CO)[C@@H](O)[C@H](O)[C@@H]1O [LIVIDOMYCIN] | 128 µg/mL (≈ 168 µM) | 128 µg/mL (≈ 168 µM) | 4 µg/mL | 8 µg/mL | 4 µg/mL | 4 µg/mL | – | – | – | – |

Reference: ChEMBL document CHEMBL1142159, “Aph(3')-IIc, an aminoglycoside resistance determinant from Stenotrophomonas maltophilia” (2007)
